We go through 1 compound from article PMC10507085, “Pharmacological inhibition of TBK1/IKKε blunts immunopathology in a murine model of SARS-CoV-2 infection” (Nature Communications, 2023).

Some targets named below: CHEK2 (Homo sapiens, UniProt O96017); NEK2 (Homo sapiens, UniProt P51955); VRK2 (Homo sapiens, UniProt Q86Y07); MYO3A (Homo sapiens, UniProt Q8NEV4); PDGFRA (Homo sapiens, UniProt P16234); RAF1 (Homo sapiens, UniProt P04049); EPHB4 (Homo sapiens, UniProt P54760); MAP2K4 (Homo sapiens, UniProt P45985); MAST1 (Homo sapiens, UniProt Q9Y2H9); CDK8 (Homo sapiens, UniProt P49336); MAP3K2 (Homo sapiens, UniProt Q9Y2U5); MAPK14 (Homo sapiens, UniProt Q16539); MKNK2 (Homo sapiens, UniProt Q9HBH9); BRAF (Homo sapiens, UniProt P15056); AAK1 (Homo sapiens, UniProt Q2M2I8); CDK2 (Homo sapiens, UniProt P24941); FGFR1 (Homo sapiens, UniProt P11362); EPHA3 (Homo sapiens, UniProt P29320).

What all share (experiment): biochemical
What all share (design): KINOMEscan competition binding, DNA-tagged kinase against immobilised ligand, qPCR read-out
Holding throughout (conditions): read-out: Percent Control

Test [1] concerns the target T1, RSK3(Kin.Dom.2-C-terminal) (Homo sapiens, UniProt Q15349).
T1 construct: gene RPS6KA2; Kin.Dom.2 C-terminal

In another test the target is T2, ICK (Homo sapiens, UniProt Q9UPZ9).
T2 construct: gene CILK1
T2 sequence (Q9UPZ9 whole entry): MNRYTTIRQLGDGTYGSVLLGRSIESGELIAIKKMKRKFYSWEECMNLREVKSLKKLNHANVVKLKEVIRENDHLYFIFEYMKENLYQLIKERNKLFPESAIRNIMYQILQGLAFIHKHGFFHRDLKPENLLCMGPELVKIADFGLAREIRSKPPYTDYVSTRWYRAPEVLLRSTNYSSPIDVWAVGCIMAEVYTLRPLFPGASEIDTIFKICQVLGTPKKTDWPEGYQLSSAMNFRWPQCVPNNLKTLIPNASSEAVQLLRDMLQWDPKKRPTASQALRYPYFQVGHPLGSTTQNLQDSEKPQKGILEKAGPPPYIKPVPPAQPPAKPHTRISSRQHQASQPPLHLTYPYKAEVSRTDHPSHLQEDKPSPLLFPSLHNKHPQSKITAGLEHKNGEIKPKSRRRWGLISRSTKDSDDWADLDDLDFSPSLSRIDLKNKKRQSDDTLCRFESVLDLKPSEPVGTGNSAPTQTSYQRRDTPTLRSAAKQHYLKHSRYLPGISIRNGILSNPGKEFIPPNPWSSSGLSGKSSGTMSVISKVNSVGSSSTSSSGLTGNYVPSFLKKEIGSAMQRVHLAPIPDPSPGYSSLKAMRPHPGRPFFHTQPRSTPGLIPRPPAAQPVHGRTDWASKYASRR

The structures appear in SMILES notation.

VRK2, sequence (Q86Y07 whole entry): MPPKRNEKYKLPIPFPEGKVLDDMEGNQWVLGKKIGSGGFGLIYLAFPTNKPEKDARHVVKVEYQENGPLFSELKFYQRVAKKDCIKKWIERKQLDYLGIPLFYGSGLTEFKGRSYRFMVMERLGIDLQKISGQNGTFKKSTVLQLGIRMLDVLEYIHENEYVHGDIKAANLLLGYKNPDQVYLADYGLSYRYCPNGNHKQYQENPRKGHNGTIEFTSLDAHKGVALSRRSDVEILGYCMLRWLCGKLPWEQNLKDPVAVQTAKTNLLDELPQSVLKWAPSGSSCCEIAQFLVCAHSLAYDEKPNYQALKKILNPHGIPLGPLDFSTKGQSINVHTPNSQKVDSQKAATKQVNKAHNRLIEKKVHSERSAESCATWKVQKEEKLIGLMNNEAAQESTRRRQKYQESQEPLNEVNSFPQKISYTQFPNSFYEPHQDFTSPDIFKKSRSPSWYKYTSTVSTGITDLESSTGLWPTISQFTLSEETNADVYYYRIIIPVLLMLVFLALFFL
BRAF, sequence (P15056 whole entry): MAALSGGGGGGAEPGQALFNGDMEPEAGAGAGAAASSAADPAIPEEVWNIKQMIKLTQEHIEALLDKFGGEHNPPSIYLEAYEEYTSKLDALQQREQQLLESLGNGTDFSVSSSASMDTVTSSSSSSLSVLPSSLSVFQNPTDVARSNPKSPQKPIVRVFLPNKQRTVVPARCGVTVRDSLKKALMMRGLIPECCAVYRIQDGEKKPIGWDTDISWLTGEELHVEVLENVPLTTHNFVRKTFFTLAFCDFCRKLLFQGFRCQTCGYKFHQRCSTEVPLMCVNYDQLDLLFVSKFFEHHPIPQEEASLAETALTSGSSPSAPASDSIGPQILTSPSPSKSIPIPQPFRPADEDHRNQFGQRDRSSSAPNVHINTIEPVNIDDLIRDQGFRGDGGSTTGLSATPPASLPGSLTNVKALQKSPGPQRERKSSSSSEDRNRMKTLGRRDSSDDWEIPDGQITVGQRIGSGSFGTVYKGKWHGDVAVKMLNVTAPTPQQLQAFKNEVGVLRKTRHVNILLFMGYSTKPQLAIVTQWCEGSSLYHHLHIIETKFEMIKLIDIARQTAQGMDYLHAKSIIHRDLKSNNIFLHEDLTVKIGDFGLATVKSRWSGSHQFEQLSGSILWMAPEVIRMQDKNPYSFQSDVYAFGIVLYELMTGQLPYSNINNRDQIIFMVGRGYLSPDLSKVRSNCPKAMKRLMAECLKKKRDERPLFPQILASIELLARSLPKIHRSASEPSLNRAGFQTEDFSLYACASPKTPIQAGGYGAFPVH
EPHA3, sequence (P29320 whole entry): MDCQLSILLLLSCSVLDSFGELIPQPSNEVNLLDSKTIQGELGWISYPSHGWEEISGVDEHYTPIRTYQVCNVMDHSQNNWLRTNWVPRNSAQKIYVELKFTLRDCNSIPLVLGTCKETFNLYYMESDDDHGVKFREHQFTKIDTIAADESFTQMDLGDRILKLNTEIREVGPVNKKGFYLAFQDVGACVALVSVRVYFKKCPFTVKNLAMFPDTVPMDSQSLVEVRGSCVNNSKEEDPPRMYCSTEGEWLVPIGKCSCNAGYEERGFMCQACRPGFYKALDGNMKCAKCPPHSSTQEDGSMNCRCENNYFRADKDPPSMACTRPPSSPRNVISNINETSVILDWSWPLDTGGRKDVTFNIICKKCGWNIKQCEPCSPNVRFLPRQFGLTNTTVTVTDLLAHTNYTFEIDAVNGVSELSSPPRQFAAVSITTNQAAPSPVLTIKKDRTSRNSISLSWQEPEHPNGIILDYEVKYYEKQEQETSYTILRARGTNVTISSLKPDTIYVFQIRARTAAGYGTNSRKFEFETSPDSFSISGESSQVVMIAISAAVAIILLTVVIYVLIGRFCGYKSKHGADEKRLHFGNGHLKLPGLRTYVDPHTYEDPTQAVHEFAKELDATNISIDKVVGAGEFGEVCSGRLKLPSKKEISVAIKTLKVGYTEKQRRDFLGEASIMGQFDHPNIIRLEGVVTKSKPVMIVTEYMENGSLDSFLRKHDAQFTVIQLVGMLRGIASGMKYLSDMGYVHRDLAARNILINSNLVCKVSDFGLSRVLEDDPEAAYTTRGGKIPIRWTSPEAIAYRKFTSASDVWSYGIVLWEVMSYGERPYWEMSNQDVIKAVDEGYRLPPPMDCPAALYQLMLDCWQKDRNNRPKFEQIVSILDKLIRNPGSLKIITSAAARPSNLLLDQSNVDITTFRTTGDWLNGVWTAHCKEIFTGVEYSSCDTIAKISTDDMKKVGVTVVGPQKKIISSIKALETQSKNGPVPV
EPHB4, sequence (P54760 whole entry): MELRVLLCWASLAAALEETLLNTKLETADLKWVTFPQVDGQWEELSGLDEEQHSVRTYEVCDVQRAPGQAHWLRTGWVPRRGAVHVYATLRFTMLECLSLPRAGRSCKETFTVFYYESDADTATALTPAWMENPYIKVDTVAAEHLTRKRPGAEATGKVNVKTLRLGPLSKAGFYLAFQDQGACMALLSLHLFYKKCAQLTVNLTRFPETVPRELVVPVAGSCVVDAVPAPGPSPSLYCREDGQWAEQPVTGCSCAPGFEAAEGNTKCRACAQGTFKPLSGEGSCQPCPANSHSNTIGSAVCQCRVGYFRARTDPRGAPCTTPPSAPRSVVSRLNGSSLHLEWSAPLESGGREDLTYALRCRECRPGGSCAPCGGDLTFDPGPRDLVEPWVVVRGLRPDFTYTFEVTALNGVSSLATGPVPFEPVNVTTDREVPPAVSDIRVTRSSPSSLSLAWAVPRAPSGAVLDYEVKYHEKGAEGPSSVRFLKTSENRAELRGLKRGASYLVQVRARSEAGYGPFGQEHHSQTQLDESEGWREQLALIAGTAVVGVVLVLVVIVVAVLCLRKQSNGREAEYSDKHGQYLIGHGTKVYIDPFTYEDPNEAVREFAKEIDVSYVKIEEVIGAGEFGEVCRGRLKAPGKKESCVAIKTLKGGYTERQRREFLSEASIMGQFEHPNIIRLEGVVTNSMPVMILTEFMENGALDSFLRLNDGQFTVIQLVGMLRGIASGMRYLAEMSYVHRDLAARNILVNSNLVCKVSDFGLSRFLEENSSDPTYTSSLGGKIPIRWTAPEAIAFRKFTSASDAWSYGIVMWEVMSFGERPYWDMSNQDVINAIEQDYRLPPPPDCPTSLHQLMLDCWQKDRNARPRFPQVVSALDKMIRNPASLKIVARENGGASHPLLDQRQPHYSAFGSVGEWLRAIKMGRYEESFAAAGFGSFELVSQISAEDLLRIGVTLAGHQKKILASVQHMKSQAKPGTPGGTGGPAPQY
MAPK14, sequence (Q16539 whole entry): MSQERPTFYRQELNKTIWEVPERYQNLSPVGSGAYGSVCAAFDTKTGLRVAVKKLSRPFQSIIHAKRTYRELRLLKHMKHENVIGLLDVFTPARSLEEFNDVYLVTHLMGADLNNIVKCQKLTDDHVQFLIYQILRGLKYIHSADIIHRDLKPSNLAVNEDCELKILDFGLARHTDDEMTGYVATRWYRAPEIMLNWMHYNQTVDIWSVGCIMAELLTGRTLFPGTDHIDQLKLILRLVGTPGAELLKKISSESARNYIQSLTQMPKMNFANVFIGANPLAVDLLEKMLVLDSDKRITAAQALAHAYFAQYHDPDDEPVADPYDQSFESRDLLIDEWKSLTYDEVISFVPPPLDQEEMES
CHEK2, sequence (O96017 whole entry): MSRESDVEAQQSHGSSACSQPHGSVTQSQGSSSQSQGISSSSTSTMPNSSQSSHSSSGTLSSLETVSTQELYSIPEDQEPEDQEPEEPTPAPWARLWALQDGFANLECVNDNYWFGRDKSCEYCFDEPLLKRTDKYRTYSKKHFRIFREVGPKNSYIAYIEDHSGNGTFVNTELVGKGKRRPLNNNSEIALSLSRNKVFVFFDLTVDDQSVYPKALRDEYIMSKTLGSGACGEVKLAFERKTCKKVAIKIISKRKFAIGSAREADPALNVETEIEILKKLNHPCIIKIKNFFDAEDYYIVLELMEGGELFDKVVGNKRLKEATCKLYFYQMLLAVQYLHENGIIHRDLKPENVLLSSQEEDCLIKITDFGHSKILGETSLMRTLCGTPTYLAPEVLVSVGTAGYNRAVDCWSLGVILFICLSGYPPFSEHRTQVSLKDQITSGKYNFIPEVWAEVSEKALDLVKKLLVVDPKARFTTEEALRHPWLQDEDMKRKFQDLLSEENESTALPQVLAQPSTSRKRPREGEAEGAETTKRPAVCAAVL

For the compound `Oc1ccc(C2=Cc3ccc(O)cc3OC2)cc1` [compound 1, idronoxil], the remaining binding at 10 µM was found to be 67% on CHEK2; 100% on NEK2; 67% on VRK2; 91% on MYO3A; 29% at PDGFRA; 69% at RAF1. The remaining binding at 10 µM in test [1] stood at 75%; on EPHB4 it was 90%; at ICK, 100%; on MAP2K4, 91%; on MAST1, 93%; at CDK8, 58%. Further, the remaining binding at 10 µM at MAP3K2 was 83%; on MAPK14, 90%; on MKNK2, 54%; on BRAF, 76%; at AAK1 it was 61%; on CDK2, 92%. Further, the remaining binding at 10 µM at FGFR1 was determined as 92%; on EPHA3, 89%.
